From patent US9505749B2, “Quinazolinone compounds and derivatives thereof” (AMGEN INC., priority 2012, dated 2016)

Columns and labels:
[1] = target: 6×HIS-tankyrase1 (1091-1325) (Homo sapiens (Human), UniProt O95271); experiment: Tankyrase 1 biochemical assay (AlphaLisa, PARsylation); conditions: 400 nM NAD, 60 minutes at RT; read-out: TNKS1 IC50
PARP1 = PARP1 (Homo sapiens (Human), UniProt P09874); experiment: PARP1 biochemical assay (Trevigen kit)
Text: PARP1 biochemical assay was purchased as a kit from Trevigen (cat.#4676-096-K) and used per manufacturers recommendations.

[2] = target: 6×HIS-tankyrase 2 (946-1162) (Homo sapiens (Human), UniProt Q9H2K2); experiment: Tankyrase 2 biochemical assay (AlphaLisa, PARsylation); conditions: 250 nM NAD; read-out: TNKS2 IC50
PARP2 = PARP2 (Homo sapiens (Human), UniProt Q9UGN5); experiment: PARP2 biochemical assay (BPS kit)
[3] = test system: Axin2 accumulation in SW480 cells; experiment: Axin2 384 immunofluorescence assay; type: cell-based; conditions: Homo sapiens; SW480 cells, 24 hours; read-out: Axin2 384 IF EC50
[4] = test system: total β-catenin in SW480 colorectal cells; experiment: Total β-catenin MSD 96-well plate assay for SW480 cells; conditions: Homo sapiens, SW480, read-out: SW480-Total beta-catenin (TBC) IC50 IP

PARP2, sequence (Q9UGN5 whole entry): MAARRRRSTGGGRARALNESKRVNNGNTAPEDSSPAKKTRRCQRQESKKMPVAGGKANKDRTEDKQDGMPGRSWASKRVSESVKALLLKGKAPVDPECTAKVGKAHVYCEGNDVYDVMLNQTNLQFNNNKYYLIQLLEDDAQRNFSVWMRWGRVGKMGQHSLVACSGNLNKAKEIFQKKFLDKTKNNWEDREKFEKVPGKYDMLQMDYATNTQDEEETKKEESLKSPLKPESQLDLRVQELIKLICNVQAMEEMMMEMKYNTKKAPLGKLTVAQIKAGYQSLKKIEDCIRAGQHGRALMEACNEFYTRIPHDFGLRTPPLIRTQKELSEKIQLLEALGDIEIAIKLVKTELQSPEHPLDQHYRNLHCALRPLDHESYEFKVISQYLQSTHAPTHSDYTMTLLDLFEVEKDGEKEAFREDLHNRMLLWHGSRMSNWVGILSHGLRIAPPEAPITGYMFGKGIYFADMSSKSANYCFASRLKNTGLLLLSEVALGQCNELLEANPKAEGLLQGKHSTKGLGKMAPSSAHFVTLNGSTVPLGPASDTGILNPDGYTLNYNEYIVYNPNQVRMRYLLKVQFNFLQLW
6×HIS-tankyrase 2 (946-1162), sequence (Q9H2K2 946-1162): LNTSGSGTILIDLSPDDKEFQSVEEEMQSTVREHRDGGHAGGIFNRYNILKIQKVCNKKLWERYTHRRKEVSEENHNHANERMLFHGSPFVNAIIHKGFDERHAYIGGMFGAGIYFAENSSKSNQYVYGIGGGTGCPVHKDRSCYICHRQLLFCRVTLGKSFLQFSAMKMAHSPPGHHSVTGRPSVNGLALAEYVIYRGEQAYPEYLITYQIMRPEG
PARP1, sequence (P09874 whole entry): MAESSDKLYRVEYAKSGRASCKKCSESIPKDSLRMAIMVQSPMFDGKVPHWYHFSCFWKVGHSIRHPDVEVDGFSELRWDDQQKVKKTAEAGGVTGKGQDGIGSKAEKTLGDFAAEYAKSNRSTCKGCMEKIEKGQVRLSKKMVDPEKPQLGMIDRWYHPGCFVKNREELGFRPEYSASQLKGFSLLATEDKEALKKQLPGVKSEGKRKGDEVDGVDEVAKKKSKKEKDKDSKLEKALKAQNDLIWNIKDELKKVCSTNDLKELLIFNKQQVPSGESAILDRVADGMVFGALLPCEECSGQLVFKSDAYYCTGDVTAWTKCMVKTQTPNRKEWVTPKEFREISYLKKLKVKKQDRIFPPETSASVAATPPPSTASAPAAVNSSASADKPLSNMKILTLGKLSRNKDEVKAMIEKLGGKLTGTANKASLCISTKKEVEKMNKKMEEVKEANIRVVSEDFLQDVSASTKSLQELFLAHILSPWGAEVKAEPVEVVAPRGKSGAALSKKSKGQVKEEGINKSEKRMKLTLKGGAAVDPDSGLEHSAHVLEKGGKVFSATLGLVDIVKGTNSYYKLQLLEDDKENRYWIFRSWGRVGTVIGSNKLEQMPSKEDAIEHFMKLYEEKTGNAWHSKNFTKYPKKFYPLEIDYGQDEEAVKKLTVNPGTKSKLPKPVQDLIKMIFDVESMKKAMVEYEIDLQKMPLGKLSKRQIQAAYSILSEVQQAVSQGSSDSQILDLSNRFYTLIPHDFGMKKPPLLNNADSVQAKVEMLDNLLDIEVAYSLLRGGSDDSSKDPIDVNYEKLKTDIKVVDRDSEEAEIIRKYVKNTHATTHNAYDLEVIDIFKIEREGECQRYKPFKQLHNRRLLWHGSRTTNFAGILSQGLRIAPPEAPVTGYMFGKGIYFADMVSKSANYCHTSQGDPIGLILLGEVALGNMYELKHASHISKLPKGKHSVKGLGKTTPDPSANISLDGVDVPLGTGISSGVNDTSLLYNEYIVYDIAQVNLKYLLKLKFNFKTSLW
6×HIS-tankyrase1 (1091-1325), sequence (O95271 1091-1325): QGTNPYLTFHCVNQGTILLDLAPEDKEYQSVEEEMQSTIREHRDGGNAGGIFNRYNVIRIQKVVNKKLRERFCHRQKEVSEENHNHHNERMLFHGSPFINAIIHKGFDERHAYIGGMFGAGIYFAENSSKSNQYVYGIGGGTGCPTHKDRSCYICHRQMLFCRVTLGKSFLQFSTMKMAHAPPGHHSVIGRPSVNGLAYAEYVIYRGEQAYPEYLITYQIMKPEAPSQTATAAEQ

SMILES	IC50 [1] [nM]	IC50 (PARP1) [nM]	IC50 [2] [nM]	IC50 (PARP2) [nM]	EC50 [3] [nM]	IC50 [4] [nM]
Cc1ccc2c(c1)[nH]c(=O)n2C1CCN(C(=O)CCCc2nc3ccccc3c(=O)[nH]2)CC1 [Example 11, 2-(4-(4-(5-methyl-2-oxo-2,3-dihydro-1H-benzimidazol-1-yl)-1-piperidinyl)-4-oxobutyl)-4(3H)-quinazolinone]	2.76	867	1.6	103	247	157
COc1ccc(-c2nnc(C3CCN(C(=O)CCCc4nc5ccccc5c(=O)[nH]4)CC3)o2)cc1 [Example 15, 2-(4-(4-(5-(4-methoxyphenyl)-1,3,4-oxadiazol-2-yl)-1-piperidinyl)-4-oxobutyl)-4(3H)-quinazolinone]	15	3170	3.35	1200	126	86.9
O=C(CCCc1nc2ccccc2c(=O)[nH]1)N1CCC(c2nnc(-c3ccccc3)o2)CC1 [Example 42, 2-(4-oxo-4-(4-(5-phenyl-1,3,4-oxadiazol-2-yl)-1-piperidinyl)butyl)-4(3H)-quinazolinone]	28.2	7470	8.26	825	843	132
O=C(CCCc1nc2ccccc2c(=O)[nH]1)N[C@H]1CC[C@H](Oc2ccccn2)CC1 [Example 56, 4-(4-oxo-3,4-dihydro-2-quinazolinyl)-N-(trans-4-(2-pyridinyloxyl)cyclohexyl)butanamide]	2.51	5820	0.719	1100	266	73.6
O=C(CCCc1nc2ccccc2c(=O)[nH]1)N[C@H]1CC[C@H](Oc2ccc(Cl)cc2)CC1 [Example 79, N-(trans-4-(4-chlorophenoxy)cyclohexyl)-4-(4-oxo-3,4-dihydro-2-quinazolinyl)butanamide]	2.85	2550	0.614	292	192	42.3
N#Cc1cc(O[C@H]2CC[C@H](NC(=O)CCCc3nc4ccccc4c(=O)[nH]3)CC2)ccc1Cl [Example 63, N-(trans-4-(4-chloro-3-cyanophenoxy)cyclohexyl)-4-(4-oxo-3,4-dihydro-2-quinazolinyl)butanamide]	2.33	586	0.653	802	270	211
O=C(CCCc1nc2ccccc2c(=O)[nH]1)N1CCC(c2nnc(-c3ccc(F)c(Cl)c3)o2)CC1 [Example 25, 2-(4-(4-(5-(3-chloro-4-fluorophenyl)-1,3,4-oxadiazol-2-yl)piperidin-1-yl)-4-oxobutyl)quinazolin-4(3H)-one]	9.61	2300	3.91	1360	240	224
N#Cc1ccc(O[C@H]2CC[C@H](NC(=O)CCSc3nc4c(c(=O)[nH]3)CCCC4)CC2)cc1 [Example 116, N-(trans-4-(4-cyanophenoxy)cyclohexyl)-3-((4-oxo-3,4,5,6,7,8-hexahydroquinazolin-2-yl)thio)propanamide]	0.167	2500	3.13	319	10.7	3.79
O=C(CSc1nc2ccccc2c(=O)[nH]1)N[C@H]1CC[C@H](n2c(=O)[nH]c3ccc(Cl)cc32)CC1 [Example 102, N-((1r,4r)-4-(6-chloro-2-oxo-2,3-dihydro-1H-benzo[d]imidazol-1-yl)cyclohexyl)-2-((4-oxo-3,4-dihydroquinazolin-2-yl)thio)acetamide]	0.118	> 85000	0.458	1650	38.1	55.4
N#Cc1ccc2c(c1)[nH]c(=O)n2C1CCN(C(=O)CCCc2nc3ccccc3c(=O)[nH]2)CC1 [Example 68, 2-oxo-1-(1-(4-(4-oxo-3,4-dihydro-2-quinazolinyl)butanoyl)-4-piperidinyl)-2,3-dihydro-1H-benzimidazole-5-carbonitrile]	0.783	636	0.292	227	239	161
O=C(CCCc1nc2ccccc2c(=O)[nH]1)N1CCC(n2c(=O)[nH]c3ncccc32)CC1 [Example 47, 2-(4-oxo-4-(4-(2-oxo-2,3-dihydro-1H-imidazo[4,5-b]pyridin-1-yl)-1-piperidinyl)butyl)-4(3H)-quinazolinone trifluoroacetic acid]	3.97	2440	1.18	1590	1270	233
O=C(CCCc1nc2ccccc2c(=O)[nH]1)N1CCC(c2nnc(-c3ccccn3)o2)CC1 [Example 12, 2-(4-oxo-4-(4-(5-(2-pyridinyl)-1,3,4-oxadiazol-2-yl)-1-piperidinyl)butyl)-4(3H)-quinazolinone]	89.7	6290	15.9	1920	1220	1840
O=C(CCCc1nc2ccccc2c(=O)[nH]1)N1CCC(c2nnc(-c3cccc(F)c3)o2)CC1 [Example 5, 2-(4-(4-(5-(3-fluorophenyl)-1,3,4-oxadiazol-2-yl)-1-piperidinyl)-4-oxobutyl)-4(3H)-quinazolinone]	31.8	3760	4.84	2350	771	92.2
O=C(CCCc1nc2ccccc2c(=O)[nH]1)N1CCN(c2n[nH]c3ccccc23)CC1 [Example 55, 2-(4-(4-(1H-indazol-3-yl)-1-piperazinyl)-4-oxobutyl)-4(3H)-quinazolinone]	1.76	1800	0.401	284	193	46.5
O=C(CCCc1nc2ccccc2c(=O)[nH]1)N1CCC(c2nnc(-c3ccccc3F)o2)CC1 [Example 18, 2-(4-(4-(5-(2-fluorophenyl)-1,3,4-oxadiazol-2-yl)-1-piperidinyl)-4-oxobutyl)-4(3H)-quinazolinone]	54.4	4470	20.9	1120	732	760
N#Cc1ccc2c(c1)[nH]c(=O)n2[C@H]1CC[C@H](NC(=O)CCSc2nc3ccccc3c(=O)[nH]2)CC1 [Example 104, N-((1r,4r)-4-(5-cyano-2-oxo-2,3-dihydro-1H-benzo[d]imidazol-1-yl)cyclohexyl)-3-((4-oxo-3,4-dihydroquinazolin-2-yl)thio)propanamide]	0.045	1350	1.31	1180	9.45	8.42
O=C(CCCc1nc2ccccc2c(=O)[nH]1)N1CCC(n2c(=O)[nH]c3ccccc32)CC1 [Example 41, 2-(4-oxo-4-(4-(2-oxo-2,3-dihydro-1H-benzimidazol-1-yl)-1-piperidinyl)butyl)-4(3H)-quinazolinone trifluoroacetic acid]	8.05	1490	4.91	500	3380	1710
O=C(CCc1nc2ccccc2c(=O)[nH]1)N[C@H]1CC[C@H](n2c(=O)[nH]c3cc(Cl)ccc32)CC1 [Example 85, N-((1r,4r)-4-(5-chloro-2-oxo-2,3-dihydro-1H-benzo[d]imidazol-1-yl)cyclohexyl)-3-(4-oxo-3,4-dihydroquinazolin-2-yl)propanamide]	0.524	> 85000	0.227	470	59.7	14.1
O=C(CCCc1nc2ccccc2c(=O)[nH]1)N1CCC(n2c(=O)[nH]c3cc(C(F)(F)F)ccc32)CC1 [Example 52, 2-(4-oxo-4-(4-(2-oxo-5-(trifluoromethyl)-2,3-dihydro-1H-benzimidazol-1-yl)-1-piperidinyl)butyl)-4(3H)-quinazolinone trifluoroacetic acid]	1.3	3830	0.193	1020	94.7	25.2
N#Cc1cccc2c1[nH]c(=O)n2C1CCN(C(=O)CCCc2nc3ccccc3c(=O)[nH]2)CC1 [Example 61, 2-oxo-1-(1-(4-(4-oxo-3,4-dihydro-2-quinazolinyl)butanoyl)-4-piperidinyl)-2,3-dihydro-1H-benzimidazole-4-carbonitrile]	0.873	464	0.206	349	217	302
O=C(CCSCc1nc2ccccc2c(=O)[nH]1)N1CCC(c2nnc(-c3ccc(F)cc3)o2)CC1 [Example 93, 2-(((3-(4-(5-(4-fluorophenyl)-1,3,4-oxadiazol-2-yl)-1-piperidinyl)-3-oxopropyl)sulfanyl)methyl)-4(3H)-quinazolinone]	95.2	8290	85.1	> 170000	1230	1200
O=C(CCCc1nc2ccccc2c(=O)[nH]1)N1CCC(n2c(=O)[nH]c3c(F)cccc32)CC1 [Example 67, 2-(4-(4-(4-fluoro-2-oxo-2,3-dihydro-1H-benzimidazol-1-yl)-1-piperidinyl)-4-oxobutyl)-4(3H)-quinazolinone]	3.93	1280	1.68	681	552	980
